The source made the active and inactive calls. The rule behind the calls is not given here.
How the values were obtained:
[1] = target: T1, Xanthine dehydrogenase/oxidase (Bos taurus, UniProt P80457); assay: Inhibition of bovine milk xanthine oxidoreductase pre-incubated for 3 mins followed xanthine substrate addition and measured every 1 mins for 10 mins by spectrophotometry
[2] = Tmax in rat at 3 mg/kg, po measured during 5 mins to 24 hrs post dose by LC-MS/MS method; assay type: ADME, organism-based; details: in vivo
Mus musculus [3] = assay: Hypouricemic effect in ICR mouse model of potassium oxonate and hypoxanthine-induced acute hyperuricemia assessed as reduction in serum uric acids level at 5 mg/kg, po dosed 1 hr after potassium oxonate and hypoxanthine challenge and measured after 1 to 4 hrs post dose; assay type: functional, organism-based
Mus musculus [4] = assay: Hypouricemic effect in ICR mouse model of potassium oxonate and hypoxanthine-induced acute hyperuricemia assessed as reduction in serum uric acids level at 5 mg/kg, po dosed 1 hr after potassium oxonate and hypoxanthine challenge and measured after 1 hr post dose; assay type: functional, organism-based
[5] = Cmax in rat at 10 mg/kg, po measured during 5 mins to 24 hrs post dose by LC-MS/MS method; assay type: ADME, organism-based; set-up: dose 10 mg/kg, route oral; details: in vivo
Rattus norvegicus = assay: AUC (0 to infinity) in rat at 10 mg/kg, po measured during 5 mins to 24 hrs post dose by LC-MS/MS method; assay type: ADME, organism-based; set-up: dose 10 mg/kg, time infinity, route oral; details: in vivo
[6] = target: T1, Xanthine dehydrogenase/oxidase; assay: Mixed type inhibition of bovine milk xanthine oxidoreductase pre-incubated for 3 mins using varying xanthine substrate levels and measured every 1 mins for 10 mins by spectrophotometry based Lineweaver-Burk plot; details: cattle
[7] = Tmax in rat at 10 mg/kg, po measured during 5 mins to 24 hrs post dose by LC-MS/MS method; assay type: ADME, organism-based; details: in vivo
[8] = Half life in rat at 10 mg/kg, po measured during 5 mins to 24 hrs post dose by LC-MS/MS method; assay type: ADME, organism-based; details: in vivo

T1 sequence (P80457 whole entry): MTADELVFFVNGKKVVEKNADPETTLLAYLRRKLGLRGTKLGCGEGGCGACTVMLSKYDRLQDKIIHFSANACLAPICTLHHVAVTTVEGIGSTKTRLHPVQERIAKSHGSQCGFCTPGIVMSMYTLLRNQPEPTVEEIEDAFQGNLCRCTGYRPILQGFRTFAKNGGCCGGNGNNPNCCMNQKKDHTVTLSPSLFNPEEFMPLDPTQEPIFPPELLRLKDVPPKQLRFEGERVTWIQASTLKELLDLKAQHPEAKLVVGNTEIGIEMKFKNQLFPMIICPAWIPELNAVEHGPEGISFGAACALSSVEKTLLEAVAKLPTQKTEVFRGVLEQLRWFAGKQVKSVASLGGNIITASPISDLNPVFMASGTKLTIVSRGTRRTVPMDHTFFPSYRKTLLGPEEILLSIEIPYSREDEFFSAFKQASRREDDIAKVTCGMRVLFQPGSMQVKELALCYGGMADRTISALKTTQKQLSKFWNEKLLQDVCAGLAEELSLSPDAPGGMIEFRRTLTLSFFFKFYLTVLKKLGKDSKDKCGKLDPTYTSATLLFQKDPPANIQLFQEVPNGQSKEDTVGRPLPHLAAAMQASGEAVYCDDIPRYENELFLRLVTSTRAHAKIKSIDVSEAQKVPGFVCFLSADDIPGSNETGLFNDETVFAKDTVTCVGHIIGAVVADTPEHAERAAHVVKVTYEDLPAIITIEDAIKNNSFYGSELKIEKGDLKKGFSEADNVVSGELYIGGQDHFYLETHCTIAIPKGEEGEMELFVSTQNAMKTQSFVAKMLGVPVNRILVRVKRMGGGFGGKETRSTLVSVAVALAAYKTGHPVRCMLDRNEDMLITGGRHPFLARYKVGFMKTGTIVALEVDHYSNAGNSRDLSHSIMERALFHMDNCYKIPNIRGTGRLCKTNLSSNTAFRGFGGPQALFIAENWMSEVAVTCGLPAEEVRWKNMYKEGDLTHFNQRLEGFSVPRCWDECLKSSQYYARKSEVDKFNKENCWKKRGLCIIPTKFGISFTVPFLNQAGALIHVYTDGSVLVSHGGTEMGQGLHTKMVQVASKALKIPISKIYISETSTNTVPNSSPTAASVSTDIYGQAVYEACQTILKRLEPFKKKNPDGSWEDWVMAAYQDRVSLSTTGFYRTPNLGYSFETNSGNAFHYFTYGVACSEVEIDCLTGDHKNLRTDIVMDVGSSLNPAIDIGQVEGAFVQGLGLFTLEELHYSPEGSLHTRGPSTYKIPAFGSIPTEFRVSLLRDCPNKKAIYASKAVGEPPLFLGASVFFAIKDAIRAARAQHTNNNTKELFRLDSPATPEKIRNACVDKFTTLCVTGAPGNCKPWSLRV

With `CCCCCCCCOc1ccc(-n2cc(C(=O)O)c(C(F)(F)F)n2)cc1C#N` the IC50 [1] was over 0.1 µM.
For `Cc1nn(-c2ccc(N3CCOCC3)c(C#N)c2)cc1C(=O)O`, the IC50 [1] was over 0.1 µM.
`CC(C)COc1ccc(-n2cc(C(=O)O)c(C(F)(F)F)n2)cc1C#N` showed an IC50 [1] of over 0.1 µM.
In the case of `CC(C)(C)COc1ccc(-n2cc(C(=O)O)c(C(F)(F)F)n2)cc1C#N`, the IC50 [1] is reported as over 0.1 µM.
With `CC1CCCN1c1ccc(-n2cc(C(=O)O)cn2)cc1C#N` (stereo not given) the IC50 [1] was 0.0067 µM.
`N#Cc1cc(-n2cc(C(=O)O)cn2)ccc1N1CCCC1` showed an IC50 [1] of 0.0057 µM.
Work on `Cc1nn(-c2ccc(OC(C)C)c(C#N)c2)cc1C(=O)O` yielded an IC50 [1] of 0.045 µM.
`Cc1nn(-c2ccc(N3CCCCC3)c([N+](=O)[O-])c2)cc1C(=O)O` gave an IC50 [1] of 0.0596 µM.
For `CC(C)(C)COc1ccc(-n2cc(C(=O)O)cn2)cc1C#N`, the Tmax [2] was 0.5 h.
In the case of `CC(C)CNc1ccc(-n2cc(C(=O)O)cn2)cc1C#N`, the IC50 [1] is reported as 0.0077 µM.
`CCCCCCCCOc1ccc(-n2cc(C(=O)O)c(C)n2)cc1C#N` gave an IC50 [1] of over 0.1 µM.
With `N#Cc1cc(-n2cc(C(=O)O)cn2)ccc1N1CCCCC1` the Activity (Mus musculus [3]) was “Active”, the Activity (Mus musculus [4]) was “Active” and the IC50 [1] was 0.0042 µM.
With `Cc1nn(-c2ccc(N3CCCCC3)c(C#N)c2)cc1C(=O)O` the IC50 [1] was 0.0133 µM.
`CCOc1ccc(-n2cc(C(=O)O)c(C)n2)cc1C#N` showed an IC50 [1] of over 0.1 µM.
Compound `CN(C)c1ccc(-n2cc(C(=O)O)cn2)cc1C#N` has an IC50 [1] of 0.0108 µM.
`Cc1nn(-c2ccc(N3CCOCC3)c([N+](=O)[O-])c2)cc1C(=O)O` gave an IC50 [1] of over 0.1 µM.
Work on `Cc1nn(-c2ccc(OCC(C)(C)C)c(C#N)c2)cc1C(=O)O` yielded an IC50 [1] of 0.023 µM.
With `Cc1nc(-c2ccc(OCC(C)C)c(C#N)c2)sc1C(=O)O` the Activity (Mus musculus [4]) was “Active”.
With `CC(C)CN(C)c1ccc(-n2cc(C(=O)O)cn2)cc1C#N` the Cmax [5] was 0.168 µg/mL, the Activity (Mus musculus [3]) was “Active” and the AUC (Rattus norvegicus) was 0.607 µg·h/mL. The Activity (Mus musculus [4]) was “Active”, the “inhibition (INH)” value [6] was “Active” and the Tmax [7] was 1 h. The IC50 [1] was 0.0057 µM and the half-life [8] was 5 h.
For `CCOc1ccc(-n2cc(C(=O)O)c(C(F)(F)F)n2)cc1C#N`, the IC50 [1] was over 0.1 µM.
Work on `CC(C)Oc1ccc(-n2cc(C(=O)O)c(C(F)(F)F)n2)cc1C#N` yielded an IC50 [1] of over 0.1 µM.
